In patent US9844217B2, “Allomone repulsive and kairomone attractive compositions for controlling arachnids” (Fideline, priority 2002, dated 2017):

Test system: chicken mites
Assay: Tests for resistance to other miticides
Parameters: species or system Dermanyssus gallinae
Details: for % deaths 1× dose: 1× the dose on the product's instructions; for % deaths 4× dose: 4× the commercial dose; for % deaths 8× dose: 8× the commercial dose; for % deaths 16× dose: 16× the commercial dose; for % deaths 32× Dose: 32× the commercial dose
Description: The doses were chosen at 1 to 32 times the dose commercially given on the products' instructions.

Cc1ccc(/N=C/N(C)/C=N/c2ccc(C)cc2C)c(C)c1 [Amitraz]
% deaths 1× dose: 97.4% | % deaths 1× dose (listed as Amitraze): most efficient miticide | % deaths 4× dose: 98.5% | % deaths 8× dose: 100.00% | % deaths 16× dose: 100.00% | % deaths 32× Dose: 100.0%

CC1(C)C(C=C(Cl)Cl)C1C(=O)OC(C#N)c1cccc(Oc2ccccc2)c1 (stereo not drawn) [Aplhamethrine]
% deaths 1× dose: 48.1% | % deaths 4× dose: 85.2% | % deaths 4× dose (listed as Aphamethrine): 85% | % deaths 8× dose: 97.0% | % deaths 16× dose: 98.9% | % deaths 32× Dose: 99.6%

COP(=O)(OC)SCn1c(=O)oc2cc(Cl)cnc21 [Azamethiphos]
% deaths 1× dose: 30.0% | % deaths 4× dose: 43.3% | % deaths 8× dose: 54.8% | % deaths 16× dose: 100.00% | % deaths 32× Dose: 97.8%

CNC(=O)Oc1cccc2ccccc12 [Carbaryl]
% deaths 1× dose: 19.3% | % deaths 4× dose: 37.8% | % deaths 8× dose: 64.4% | % deaths 16× dose: 91.1% | % deaths 32× Dose: 97.8%

COP(=O)(OC)C(O)C(Cl)(Cl)Cl (stereo not drawn) [Trichlorfon]
% deaths 1× dose: 20.4% | % deaths 4× dose: 39.7% | % deaths 8× dose: 34.4% | % deaths 16× dose: 80.8% | % deaths 32× Dose: 94.4%
